# Legend:
# Mus musculus [1] = assay: compound was tested in vivo for hypoglycemic activity expressed as Glucose lowering relative to positive control in 6-8 week old C57BL/6J ob/ob mouse at 50 mg/kg; format: functional
# Mus musculus [2] = assay: In vivo hypoglycemic activity expressed as glucose lowering relative to positive control in 6-8 week old C57BL/6J ob/ob mouse at 5 mg/kg.; format: functional
# Rattus norvegicus [3] = organism: Rattus norvegicus; assay: Percentage inhibition of basal stimulated Gluconeogenesis in Isolated Rat Hepatocytes in vitro; format: functional, Hepatocyte
# Rattus norvegicus [4] = organism: Rattus norvegicus; assay: Inhibition of gluconeogenesis in rat; format: functional
# Mus musculus [5] = assay: In vivo hypoglycemic activity expressed as glucose lowering relative to positive control in 6-8 week old C57BL/6J ob/ob mouse at 10 mg/kg; format: functional
# Rattus norvegicus [6] = organism: Rattus norvegicus; assay: Percentage inhibition of Glucagon-stimulated Gluconeogenesis in Isolated Rat Hepatocytes in vitro; format: functional, Hepatocyte
# 3T3-L1 [7] = assay: In vitro measurements 2-Deoxyglucose (2DG) uptake in vehicle treated 3T3-L1 adipocytes at 100 uM dose.; format: functional
# 3T3-L1 [8] = assay: Acute effects in vitro by measuring 2-deoxyglucose (2DG) uptake in vehicle treated 3T3-L1 adipocytes at 30 uM dose.; format: functional
# Mus musculus [9] = assay: In vivo hypoglycemic activity expressed as glucose lowering relative to positive control in 6-8 week old C57BL/6J ob/ob mouse at 1 mg/kg.; format: functional
# 3T3-L1 [10] = assay: In vitro measurements of 2-Deoxyglucose (2DG) uptake in vehicle treated 3T3-L1 adipocytes at 60 uM dose.; format: functional
# 3T3-L1 [11] = assay: In vitro by measurements of 2-Deoxyglucose (2DG) uptake in vehicle treated 3T3-L1 adipocytes at 3 uM dose.; format: functional
# 3T3-L1 [12] = assay: compound was evaluated for their acute effects in vitro by measuring 2-Deoxyglucose (2DG) uptake in vehicle treated 3T3-L1 adipocytes at 1 uM dose.; format: functional
# 3T3-L1 [13] = assay: Acute effects in vitro by measuring 2-deoxyglucose (2DG) uptake in vehicle treated 3T3-L1 adipocytes at 10 uM dose.; format: functional
# Mus musculus [14] = assay: compound was tested in vivo for hypoglycemic activity expressed as Glucose lowering relative to positive control in 6-8 week old C57BL/6J ob/ob mouse at 2.5 mg/kg; format: functional
# 3T3-L1 [15] = assay: compound was evaluated for their acute effects in vitro by measuring 2-Deoxyglucose (2DG) uptake in vehicle treated 3T3-L1 adipocytes at 0.5 uM dose.; format: functional
SMILES,Hypoglycemic activity (Mus musculus [1]) [%],Hypoglycemic activity (Mus musculus [2]) [%],Inhibition (Rattus norvegicus [3]) [%],"ED50 (Rattus norvegicus [4]; Rattus norvegicus, read-out: ED50) [mg/kg]",Hypoglycemic activity (Mus musculus [5]) [%],Inhibition (Rattus norvegicus [6]) [%],Basal uptake (3T3-L1 [7]) [%],Basal uptake (3T3-L1 [8]) [%],Hypoglycemic activity (Mus musculus [9]) [%],Basal uptake (3T3-L1 [10]) [%],Basal uptake (3T3-L1 [11]) [%],Basal uptake (3T3-L1 [12]) [%],ED50 (Rattus norvegicus [4]) [mg/kg],Hypoglycemic activity (Mus musculus [5]; 10 mg/kg) [%],Basal uptake (3T3-L1 [13]) [%],Hypoglycemic activity (Mus musculus [14]) [%],Basal uptake (3T3-L1 [15]) [%]
CC(C)c1ccc(OC(Cc2ccc(Cl)cc2)C(=O)O)cc1 (stereo not drawn),82,26,32,10,58,20,150,–,–,–,–,–,–,–,–,–,–
CC(C)c1ccc(OC(C)(C(=O)O)C(C)c2ccc(Cl)cc2)cc1 (stereo in doubt; 84),–,77,–,–,–,–,–,128,<0,214,102,99,2.5,142,131,62,98

# — ChEMBL document CHEMBL1129417, “Glucose transport-enhancing and hypoglycemic activity of 2-methyl-2-phenoxy-3-phenylpropanoic acids” (1996)
